# Like-named read-outs stand apart in the source and are kept apart here.
# Tests used:
# [1] = test system: Penicillium expansum; assay: Fungicidal activity, fumigation of Penicillium expansum spore plates in sealed 6 L containers; format: cell-based; settings: 24 h exposure, further 48 h incubation; for MIC: Penicillium expansum, 24 h
# Protocol: Experiments were conducted to determine the fungicidal activity of several compounds of the invention using Penicillium expansum as the test organism.
# Plates of potato dextrose agar were streaked with a standard culture of Penicillium expansum spores (0.1 ml of a 2×10^5 cfu/ml) and placed in sealed plastic containers (nominal volume 6 liters). The containers (Rubbermaid) were fitted with a small fan (Radio Shack 12VDC) in the lids to ensure good distribution of the test compounds. The plates were exposed to different volumes (2.5 μl, 5 μl, 10 μl, 20 μl, 40 μl, 80 μl, or 120 μl) of standard solutions (1.0 to 4.0 mg/ml) of tested compounds in ethanol, under ambient conditions. After exposing for 24 h, the plates were removed and incubated for a further 48 h, at ambient temperature, and then monitored for growth of the test organism by visual observation.
# The following tables provide summary results of three separate studies to determine the minimum amounts of the compounds needed to produce 100% inhibition of growth of the test organism. Results are expressed as minimal volumes (μl/6 L) and amounts (μg/L) required to produce 100% inhibition.
# [2] = test system: Enterobacter cloacae (ATCC 13047); assay: MIC and MBC by Macrodilution Broth Method; format: cell-based
# [3] = test system: E. coli 0157:H7 (ATCC 43894); assay: MIC and MBC by Macrodilution Broth Method; format: cell-based; settings: ATCC43894, Escherichia coli 0157:H7
# [4] = test system: Listeria monocytogenes (ATCC 13932); assay: MIC and MBC by Macrodilution Broth Method; format: cell-based
# [5] = test system: Proteus mirabilis (ATCC 3559); assay: MIC and MBC by Macrodilution Broth Method; format: cell-based
# [6] = test system: Klebsiella pneumoniae (ATCC 35657); assay: MIC and MBC by Macrodilution Broth Method; format: cell-based
# [7] = test system: Legionella pneumophila (ATCC 33152); assay: microbe, parasite or virus in culture; format: cell-based
# [8] = test system: Shigella dysenteriae (ATCC 12021); assay: MIC and MBC by Macrodilution Broth Method; format: cell-based
# [9] = test system: Methicillin Resistant Staphylococcus aureus (MRSA) (ATCC 33591); assay: MIC and MBC by Macrodilution Broth Method; format: cell-based
# [10] = test system: Bacillus cereus (ATCC 10702); assay: MIC and MBC by Macrodilution Broth Method; format: cell-based
# [11] = test system: Streptococcus pyogenes (ATCC 10096); assay: MIC and MBC by Macrodilution Broth Method; format: cell-based; settings: ATCC10096, Streptococcus pyrogenes
# [12] = test system: Corynebacterium renale (ATCC 10848); assay: MIC and MBC by Macrodilution Broth Method; format: cell-based; settings: ATCC10848, Corynebacterum renale
# [13] = test system: Clostridium sporogenes (ATCC 11437); assay: MIC and MBC by Macrodilution Broth Method; format: cell-based; settings: ATCC11437, read-out: MIC concentration (ppm)
# [14] = Temperature and pH lability (GC-MS of ethanol eluate); format: physicochemical; settings: high pH (above pH 7)
# Protocol: As shown at a standard GC/MS injection temperature of 250° C., N-methyl N-nitroso isobutyramide is not detected as it most likely has broken down into other compounds. Therefore, this compound has never been previously identified.
# [15] = test system: Staphylococcus aureus (MRSA) (ATCC 33591); assay: MIC and MBC of Compound 1 and analogs, macrodilution; settings: for MIC: 19 h; for MBC: 25 h
# [16] = test system: Pseudomonas aeruginosa PAO1; assay: Lubbock biofilm model: relative ratio of bacterium by qPCR
# [17] = test system: Enterococcus faecalis V583; assay: as above
# [18] = test system: Staphylococcus aureus Mu50; assay: as above
# [19] = test system: Pseudomonas aeruginosa PAO1, Enterococcus faecalis V583 and Staphylococcus aureus Mu50 biofilm; assay: Lubbock chronic wound biofilm model: biofilm formation and dry weight; settings: biofilm at 24 hours
# [20] = Experiment #1, read-out: Amount for 100% inhibition (μg compound/L air)
# [21] = Experiment #2, read-out: Amount for 100% inhibition (μg compound/L air)
# [22] = Experiment #3, read-out: Amount for 100% inhibition (μg compound/L air)
# [23] = Experiment #4, read-out: Amount for 100% inhibition (μg compound/L air)
# [24] = 37° C., 16 to 20 hours, read-out: MIC concentration (ppm)
# [25] = read-out: MBC concentration (ppm)
# [26] = Experiment #6, read-out: Amount for 100% inhibition (μg compound/L air)
# [27] = Experiment #5, read-out: Amount for 100% inhibition (μg compound/L air)
# [28] = read-out: Amount for 100% inhibition (μg compound/L air), Experiment #1
smiles,measurement,setting,value
"CC(C)C(=O)N(C)N=O [Compound 1, N-methyl N-nitrosoisobutyramide]",MIC,[1]; [20],0.0045 µg/mL
same,MIC,[1]; [21],0.0043 µg/mL
same,MIC,[1]; [22],0.004 µg/mL
same,MIC,[1]; [23],0.0084 µg/mL
same,MIC,"[2]; ATCC13047, 37° C., 16 to 20 hours, read-out: MIC concentration (ppm)",12.5 µg/mL
same,MBC,"[2]; ATCC13047, read-out: MBC concentration (ppm)",12.5 µg/mL
same,MIC,[3]; [24],12.5 µg/mL
same,MBC,[3]; [25],12.5 µg/mL
same,MIC,"[4]; ATCC13932, 37° C., 16 to 20 hours, read-out: MIC concentration (ppm)",3.13 µg/mL
same,MBC,"[4]; ATCC13932, read-out: MBC concentration (ppm)",12.5 µg/mL
same,MIC,"[5]; ATCC3559, 37° C., 16 to 20 hours, read-out: MIC concentration (ppm)",6.25 µg/mL
same,MBC,"[5]; ATCC3559, read-out: MBC concentration (ppm)",12.5 µg/mL
same,MIC,"[6]; ATCC35657, 37° C., 16 to 20 hours, read-out: MIC concentration (ppm)",12.5 µg/mL
same,MBC,"[6]; ATCC35657, read-out: MBC concentration (ppm)",12.5 µg/mL
same,MBC,"[7]; ATCC33152, read-out: MBC concentration (ppm)",25 µg/mL
same,MIC,"[7]; ATCC33152, read-out: MIC concentration (ppm)",6.25 µg/mL
same,MBC,"[8]; ATCC12021, read-out: MBC concentration (ppm)",12.5 µg/mL
same,MIC,"[8]; ATCC12021, read-out: MIC concentration (ppm)",6.25 µg/mL
same,MBC,[9]; [25],12.5 µg/mL
same,MIC,[9]; read-out: MIC concentration (ppm),6.25 µg/mL
same,MIC,"[10]; ATCC10702, 37° C., 16 to 20 hours, read-out: MIC concentration (ppm)",6.25 µg/mL
same,MBC,"[10]; ATCC10702, read-out: MBC concentration (ppm)",12.5 µg/mL
same,MIC,[11]; [24],6.25 µg/mL
same,MBC,[11]; [25],6.25 µg/mL
same,MIC,[12]; [24],6.25 µg/mL
same,MBC,[12]; [25],12.5 µg/mL
same,MIC,[13],25 µg/mL
same,stability to pH,[14],unstable
same,MIC,[15],6.25 µg/mL
same,MBC,[15],12.5 µg/mL
same,P. aeruginosa relative ratio in biofilm,"[16]; dilution 1:10, 24 hours",34.3% ± 1.2%
same,P. aeruginosa relative ratio in biofilm,"[16]; dilution 1:100, 24 hours",46.7% ± 8.0%
same,P. aeruginosa relative ratio in biofilm,"[16]; dilution 1:1000, 24 hours",50.5% ± 8.4%
same,P. aeruginosa relative ratio in biofilm,"[16]; dilution 1:10000, 24 hours",20.3% ± 0.9%
same,E. faecalis relative ratio in biofilm,"[17]; dilution 1:10, 24 hours",65.5% ± 0.6%
same,E. faecalis relative ratio in biofilm,"[17]; dilution 1:100, 24 hours",39.5% ± 1.0%
same,E. faecalis relative ratio in biofilm,"[17]; dilution 1:1000, 24 hours",34.4% ± 0.2%
same,E. faecalis relative ratio in biofilm,"[17]; dilution 1:10000, 24 hours",32.6% ± 0.3%
same,S. aureus relative ratio in biofilm,"[18]; dilution 1:10, 24 hours",0.27% ± 0.0%
same,S. aureus relative ratio in biofilm,"[18]; dilution 1:100, 24 hours",13.9% ± 0.2%
same,S. aureus relative ratio in biofilm,"[18]; dilution 1:1000, 24 hours",15.2% ± 1.6%
same,S. aureus relative ratio in biofilm,"[18]; dilution 1:10000, 24 hours",47.2% ± 1.2%
same,dry weight mg ± SD,[19]; dilution 1:10,21.7 ± 3.2 mg
same,dry weight mg ± SD,[19]; dilution 1:100,59 ± 4.4 mg
same,dry weight mg ± SD,[19]; dilution 1:1000,63 ± 5.3 mg
same,dry weight mg ± SD,[19]; dilution 1:10000,79.7 ± 5.5 mg
"CCCCCC(=O)N(C)N=O [Compound 2, N-methyl-N-nitrosohexanamide]",MIC,[1]; [23],0.0043 µg/mL
"CN(N=O)C(=O)CC1CC1 [Compound 3, 2-cyclopropyl-N-methyl-N-nitrosoacetamide]",MIC,[1]; [26],0.005 µg/mL
"C=CC(=O)N(C)N=O [Compound 4, N-methyl-N-nitrosoacrylamide]",MIC,[1]; [27],0.0011 µg/mL
"CN(N=O)C(=O)C1CCC1 [Compound 5, N-methyl-N-nitrosocyclobutanecarboxamide]",MIC,[1]; [27],0.0012 µg/mL
"COCC(=O)N(C)N=O [Compound 6, 2-methoxy-N-methyl-N-nitrosoacetamide]",MIC,[1]; [26],0.0022 µg/mL
"CN(N=O)C(=O)C1CC1 [Compound 7, N-methyl-N-nitrosocyclopropanecarboxamide]",MIC,[1]; [20],0.0101 µg/mL
same,MIC,[1]; [21],0.01 µg/mL
same,MIC,[1]; [22],0.0082 µg/mL
"C/C=C/C(=O)N(C)N=O [Compound 8, (2E)-N-methyl-N-nitrosobut-2-enamide]",MIC,[1]; [27],0.0075 µg/mL
"CCCCCCC(=O)N(C)N=O [Compound 9, N-methyl-N-nitrosoheptanamide]",MIC,[1]; [23],0.0075 µg/mL
"CC(C)C(=O)N(C)N=O [Compound 10, N-methyl-N-nitrosisopropanamide]",Amount for 100% inhibition (μg compound/L air),[1]; Experiment #4,>14.4 μg compound/L air
"CCN(N=O)C(=O)C(C)C [Compound 11, N-ethyl-N-nitrosoisobutyramide]",MIC,[1]; [26],> 0.0147 µg/mL
"CCCN(N=O)C(C)=O [Compound 12, N-nitroso-N-propylacetamide]",MIC,[1]; [28],0.0252 µg/mL
"CCCC(=O)N(C)N=O [Compound 13, N-methyl-N-nitrosobutyramide]",MIC,[1]; [20],0.0092 µg/mL
same,MIC,[1]; [21],0.0071 µg/mL
same,MIC,[1]; [22],0.0075 µg/mL
"CC(=O)N(N=O)C1CC1 [Compound 14, N-cyclopropyl-N-nitrosoacetamide]",MIC,[1]; [20],0.0278 µg/mL
"CC(=O)N(N=O)C(C)C [Compound 16, N-isopropyl-N-nitrosoacetamide]",MIC,[1]; [21],> 0.0806 µg/mL
same,MIC,[1]; [28],0.025 µg/mL
"O=NN1CCCCC1=O [Compound 17, 1-nitrosopiperidine-2-one]",MIC,[1]; [22],> 0.0036 µg/mL
"O=NN1CCCC1=O [Compound 18, 1-nitrosopyrrolidin-2-one]",MIC,[1]; [21],> 0.084 µg/mL
same,MIC,[1]; [26],> 0.0163 µg/mL
"CC(C)CC(=O)N(C)N=O [Compound 19, N-3-dimethyl-N-nitrosobutanamide]",Amount for 100% inhibition (μg compound/L air),[1]; Experiment #5,>15.5 μg compound/L air
"CCC(=O)N(C)N=O [Compound 20, N-methyl-N-nitrosopropanamide]",MIC,[1]; [23],0.0075 µg/mL
"CCCCC(=O)N(C)N=O [Compound 21, N-methyl-N-nitrosopentanamide]",MIC,[1]; [23],0.0163 µg/mL
"CCC(C)C(=O)N(C)N=O (stereo not drawn) [Compound 22, N,2-dimethyl-N-nitrosobutanamide]",MIC,[1]; [27],> 0.0152 µg/mL
COCC(=O)N(C)N=O [drawing 50],MIC,[15],25 µg/mL
same,MBC,[15],> 50 µg/mL
C=CC(=O)N(C)N=O [drawing 51],MIC,[15],> 50 µg/mL
same,MBC,[15],> 50 µg/mL
C/C=C/C(=O)N(C)N=O [drawing 52],MIC,[15],6.25 µg/mL
same,MBC,[15],25 µg/mL
CCC(=O)N(C)N=O [drawing 53],MIC,[15],12.5 µg/mL
same,MBC,[15],25 µg/mL
CCCCCCC(=O)N(C)N=O [drawing 54],MIC,[15],6.25 µg/mL
same,MBC,[15],25 µg/mL
CC(C)CC(=O)N(C)N=O [drawing 55],MIC,[15],0.78 µg/mL
same,MBC,[15],25 µg/mL

# Reference: patent US8728442B2, “Method of controlling the growth of microorganisms by a composition containing isolated or in vitro synthesized nitrosoamides” (Bayer CropScience LP, priority 2009, dated 2014)
